Legend:
Type in all cases: cell-based, human
[1] = tested on: p53 reporter (PG13-luc) in DLD-1 cells; assay: luciferase-based p53-reporter activity assay; settings: 3 and 24 hours
Experimental: (§1) High-throughput screening was performed using a non-invasive bioluminescence imaging in human colorectal cancer cell lines that stably express a p53-regulated luciferase reporter. Cells were seeded in 96-well plates (Greiner Bio-One) at a density of 1×10^4 cells per well. p53 transcriptional activity was imaged using an IVIS imaging system for a period of 3-4 hours.
(§2) Cell-based screening of p53 transcriptional activity for small molecule CB002 was accomplished using noninvasive bioluminescence imaging in human colorectal cancer cell lines SW480, DLD-1, DLD-1 p73^−/−, HCT116, and HCT116 p53^−/−. These cell lines stably express a p53 reporter, PG13-luc. Cells were seeded in opaque 96-well culture at a density of 5×10^4 cells/well. The cells were treated with CB002 at ranging doses with DMSO controls. Bioluminescence in cells was imaged for p53 transcriptional activity at 2 hours and 24 hours using IVIS imaging system (Xenogen).
(§3) In order to identify small molecules that could restore the p53 signaling pathway, 50,000 small molecules from the Chembridge Library were screened using a firefly luciferase human p53 reporter assay system. SW480 colorectal cancer cells that stably express the human p53 reporter were treated with compounds at various concentrations from 0-100 μM for 2 and 24 hours. […] To further validate the effects of CB002, the screening was expanded by testing effects on p53-dependent reporter activity in DLD-1, wild-type HCT116, and p53-null colorectal cancer HCT116 cell lines. […] Referring to FIG. 1, representative images of luciferase-based p53-reporter activity assays are shown at 3 hours (Panel A). Quantification of the luciferase-based p53-reporter activity assays in three different cell lines incubated from 3-24 hours with CB002 are shown (Panels B-D). p53-reporter activity assays are shown at 2 hours for HCT116 p53-null cells (Panel E).

[2] = tested on: p53 reporter (PG13-luc) in HCT116 p53-null cells; assay: luciferase-based p53-reporter activity assay; settings: 3 and 24 hours
Experimental: as §1, §2, §3

[3] = tested on: p53 reporter (PG13-luc) in wild-type HCT116 cells; assay: luciferase-based p53-reporter activity assay; settings: 3 and 24 hours
Experimental: as §1, §2, §3

WI38 normal cells = assay: apoptosis assay, sub-G1 analysis (propidium iodide, flow cytometry)
Experimental: Apoptotic cells were quantified by sub-G1 analysis. Cells were seeded at a density of 2.5×10^5 to 5×10^5 in a 6-well plate and treated for 48-72 hours. After treatment, adherent cells were trypsinized and collected along with floating cells, washed with PBS and fixed in 70% ethanol. Cells were then incubated in a Phosphate-citric acid buffer (0.2 M Na2HPO4+0.1 M Citric Acid, pH 7.8) at room temperature for 5 minutes, spun down and resuspended for staining with 50 μg/mL propidium iodide (PI) in the presence of 250 μg/mL pancreatic ribonuclease (RNase A). Sub-G1 analyses were performed using an Epics Elite Epics flow cytometer (Coulter-Beckman).
Cells were seeded out at 1×10^6 cells/well on six well plates and treated with CB002 and Analog 11 at ranging doses with DMSO controls. Cells were harvested after 72 hours of treatment, all cells including floating cells were fixed with ethanol and stained with Propidium Iodide and then analyzed using Epics Elite flow cytometer to measure the DNA content of the stained cells.

[4] = tested on: SW480 NOXA stable knockdown cells; assay: apoptosis assay, sub-G1 analysis; settings: 96 μM, 48 hours, NOXA stably knocked down; DMSO 3.93%
Experimental: A NOXA shRNA plasmid construct was amplified according to the manufacturer's recommendation (TRC Lentiviral Human PMAIP1 shRNA, Dharmacon). Plasmid DNA was isolated using the PureLink® HiPure Plasmid Filter Maxiprep Kit (Invitrogen) according to the manufacturer's instructions. Lentivirus production was performed by transfecting HEK293T cells at a density of 8×10^6 cells per 10 cm dish with 1.6 μg pMD2.G envelope plasmid, 3.2 μg psPAX2 packaging vector, 3.2 μg plasmid DNA, and 24 μL of Lipofectamine® Transfection reagent 2000 (Life Technologies) in a total volume of reaction of 1 mL of antibiotic free DMEM media for a period of 6-10 hours. Media was then replaced with antibiotic free DMEM. Lentiviral particles were collected between 48-72 hours. SW480 cells ([…] in a 12-well plate) were infected 1:1 (virus containing media: antibiotic free DMEM media, total volume 1 mL) for a period of 24 hours. Then, media was replaced with DMEM complete media for an additional 24 hours. At this point, cells were split and seeded (20% confluent) for selection in a 10 cm dish with puromycin (2.5 μg/mL)-containing complete DMEM media and cultured for 10 days. Puromycin containing complete media was replaced every 2-3 days. Puromycin-resistant clones were screened for knockdown of NOXA by Western blot analysis with NOXA antibody.
Apoptotic cells were quantified by sub-G1 analysis. […]

For `Cn1c(=O)c2[nH]c(Nc3ccccc3)nc2n(C)c1=O` [CB002, 8-anilino-1,3-dimethyl-3,7-dihydro-1H-purine-2,6-dione], the p53 reporter activity [1] was “induced in a dose-dependent manner”, the p53 reporter activity [2] was “induced in a dose-dependent manner” and the p53 reporter activity [3] was “induced in a dose-dependent manner”. For the same molecule, the sub-G1 population (WI38 normal cells; 96 μM, 48 hours, DMSO control 7.6%) was 9.8%, the sub-G1 fraction (WI38 normal cells; 200 μM, 72 hours) was “relatively unchanged” and the sub-G1 content [4] was 3.7%.
